Experimental data as given in PubChem BioAssay (NCI).
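Interpolation was linear, between the two tested concentrations surrounding the appropriate level; five concentrations were tested over 48 hours in 96-well plates. Here, GI50 denotes the concentration required for 50% inhibition of growth. At the TGI there is no net growth.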

Key:
Assay in all cases: NCI-60 cell line screen, 48 h
BT-549 breast = tested on: BT-549 breast
CCRF-CEM leukemia = tested on: CCRF-CEM leukemia
A549 NSCLC = tested on: A549 NSCLC
HOP-92 NSCLC = tested on: HOP-92 NSCLC
NCI-H23 lung = tested on: NCI-H23 lung
OVCAR-4 ovarian = tested on: OVCAR-4 ovarian
LOX IMVI melanoma = tested on: LOX IMVI melanoma
SF-539 CNS = tested on: SF-539 CNS
T-47D breast = tested on: T-47D breast
K-562 leukemia = tested on: K-562 leukemia

Structure (SMILES)	GI50 (BT-549 breast) [µM]	TGI (BT-549 breast) [µM]	GI50 (CCRF-CEM leukemia) [µM]	TGI (CCRF-CEM leukemia) [µM]	GI50 (A549 NSCLC) [µM]	TGI (A549 NSCLC) [µM]	GI50 (HOP-92 NSCLC) [µM]	TGI (HOP-92 NSCLC) [µM]	GI50 (NCI-H23 lung) [µM]	TGI (NCI-H23 lung) [µM]	GI50 (OVCAR-4 ovarian) [µM]	TGI (OVCAR-4 ovarian) [µM]	GI50 (LOX IMVI melanoma) [µM]	TGI (LOX IMVI melanoma) [µM]	GI50 (SF-539 CNS) [µM]	TGI (SF-539 CNS) [µM]	GI50 (T-47D breast) [µM]	TGI (T-47D breast) [µM]	TGI (K-562 leukemia) [µM]	GI50 (K-562 leukemia) [µM]
COc1ccc(C(=O)/C=C/c2cccnc2Nc2cc(OC)c(OC)c(OC)c2)cc1	3.1	11.6	0.711	6.15	1.67	18.5	2.4	11.8	2.24	17.6	1.52	10.1	0.738	2.28	1.81	5.62	1.94	15.6	–	–
CN(C)C(=S)SN(C)C(=O)Nc1ccccc1	–	> 100	–	> 91.1	–	> 100	–	22.2	–	> 80.5	–	53.5	–	44.7	–	> 81.1	–	99.1	> 100	–
CC12CCCC(CC(=O)c3[nH]c4ccccc4c31)C2 (stereo not drawn)	0.624	12.8	0.459	> 100	2.26	> 55.9	2.56	36.7	2.07	> 63.1	9.74	> 90.8	0.615	20.9	0.698	5.75	0.65	> 100	> 45.2	0.345
C[C@]12CC[C@@H]3c4ccc(O)cc4CC[C@H]3[C@@H]1CC[C@@H]2NS(=O)(=O)c1ccc(C(F)(F)F)cc1	1.7	3.2	2.77	9.8	2.05	4.98	1.51	3.28	2.08	5.43	1.42	2.78	1.68	3.06	1.6	2.97	2.68	6.32	8.69	3.16
NC(N)=NC(N)=Nc1cc2ccccc2c2ccccc12	10.5	22.8	8.61	30.5	4.58	18.1	1.31	11	12.3	29.7	10.1	25.9	5.15	22	10.6	23.5	11	29.3	21.9	4.34
COc1ccc(-c2cc3c(nn2)-c2ccccc2C3=O)cc1	> 100	> 100	9.52	> 100	> 100	> 100	> 100	> 100	> 100	> 100	> 100	> 100	> 100	> 100	> 100	> 100	> 100	> 100	> 100	> 100
CC(=O)[O][Hg][c]1c(C)c(C)c(C)c(C)c1C	1.16	2.38	0.895	9.71	10.7	27.8	1.6	3.12	0.98	2.52	2.04	4.47	1.29	2.82	1.66	3.25	1.36	3.74	2.63	0.468
COc1cc2c(/C=C3/C(=O)Nc4cccc(Cl)c43)c(Cl)n(Cc3ccccc3)c2cc1C	6.98	29.1	4.83	> 100	4.76	> 100	44.9	> 100	4.59	15	7.73	> 100	4.42	23.7	3.78	> 100	14	> 100	> 100	5.22
COc1cccc(NCc2nnc(Nc3ccc(Cl)cc3)c3ccccc23)c1	1.9	7.42	2.73	13.4	1.93	9.42	0.329	2.91	1.22	6.74	1.33	17.6	1.11	4.84	3.07	6.56	0.649	6.56	13.1	1.49
Cn1cc(C2=C(c3cn(C)c4c(N)cccc34)C(=O)NC2=O)c2ccccc21	1.01	6.66	0.797	> 25	1.39	> 25	–	–	4.33	21.3	8.3	> 23.6	1.94	> 25	0.59	1.98	1.31	11.9	> 25	0.385
COc1cc(C(=O)O[C@H](C(N)=O)[C@]2(C)CO2)c2ccccc2c1	18.5	38.9	10.9	58	15.4	73	20.3	50.6	7.95	21.8	10.1	48.6	24.7	59.8	2.41	7.55	10.7	27.3	–	–
COc1ccc2cc(C(=O)/C=C/c3cccc(OC)c3OC)ccc2c1	20.6	63.1	5.46	> 100	7.11	24.8	36.2	> 100	11.2	25.3	–	–	–	–	11.1	26.1	3.9	35.5	12.1	2.84
COc1cc2c3c(n(CCCCl)c(=O)c2cc1OC)-c1ccccc1C3=O	> 100	> 100	0.71	> 100	> 100	> 100	78.8	> 100	97.3	> 100	–	–	8.83	> 100	14.1	> 100	> 100	> 100	> 100	> 100
